Measurements published in US20220282217A1, “COMPOSITIONS AND METHODS FOR PREPARING T CELL COMPOSITIONS AND USES THEREOF” (priority 2019, published 2022).
Where a SMILES comes first, the peptide text is derived from it.

These compounds were tested against HLA-A02.01 (Homo sapiens, UniProt P04439, D140Y/D185E/D98H/E176V/E277Q/G131W/G231S/I119V/I121R/I166T/I218V/L300P/L318F/N151K/N90K/P208A/P217A/Q86G/Q94H/R138H/R169H/T345S) (assay: Class I MHC peptide binding affinity (displacement of radiolabeled reference peptide)). Conditions: EGFR T790M peptides; HLA allele A02.01; read-out: Affinity.
Procedure: In brief, MHCI complexes were prepared and bound to radiolabeled reference peptides. Peptides were incubated at varying concentrations with these complexes for 2 days, and the amount of remaining radiolabeled peptide bound to […] was measured using size exclusion gel-filtration.
In the case of `CC[C@H](C)[C@H](NC(=O)[C@@H](N)CC(C)C)C(=O)N[C@@H](CCSC)C(=O)N[C@@H](CCC(N)=O)C(=O)N[C@@H](CC(C)C)C(=O)N[C@@H](CCSC)C(=O)N1CCC[C@H]1C(=O)N[C@@H](Cc1ccccc1)C(=O)NCC(=O)O` (H-LIMQLMPFG-OH; N-terminus and C-terminus assumed), the Kd is reported as 3.34 µM.

Same assay, conditions: Observed Affinity (IC50; (nM)), allele A02.01
For `CC(C)C[C@H](NC(=O)[C@H](CC(=O)O)NC(=O)[C@H](CO)NC(=O)[C@H](CCC(N)=O)NC(=O)[C@H](CCC(N)=O)NC(=O)[C@@H](N)CCC(N)=O)C(=O)N[C@@H](CCC(N)=O)C(=O)N1CCC[C@H]1C(=O)N1CCC[C@H]1C(=O)N[C@@H](C)C(=O)O` (H-QQQSDLQPPA-OH; N-terminus and C-terminus assumed), the IC50 was 646 nM.
Work on `CC[C@H](C)[C@H](NC(=O)[C@H](CC(N)=O)NC(=O)[C@H](CCSC)NC(=O)[C@H](Cc1c[nH]cn1)NC(=O)[C@H](CC(N)=O)NC(=O)CNC(=O)[C@H](CC(C)C)NC(=O)[C@@H](N)Cc1ccc(O)cc1)C(=O)N[C@@H](C)C(=O)N[C@@H](CC(N)=O)C(=O)O` (H-YLGNHMNIAN-OH; N-terminus and C-terminus assumed) yielded an IC50 of 1340 nM.
In the case of `CC[C@H](C)[C@H](NC(=O)[C@@H]1CCCN1C(=O)[C@H](CC(C)C)NC(=O)[C@@H](N)CC(C)C)C(=O)N1CCC[C@H]1C(=O)N1CCC[C@H]1C(=O)N[C@@H](CC(C)C)C(=O)N[C@@H](CO)C(=O)N1CCC[C@H]1C(=O)N[C@@H](CO)C(=O)O`, the IC50 is reported as 449 nM.
With `CC[C@H](C)[C@H](NC(=O)[C@@H](NC(=O)[C@@H](NC(=O)[C@@H](N)Cc1ccc(O)cc1)[C@@H](C)CC)[C@@H](C)CC)C(=O)N[C@@H](CCC(=O)O)C(=O)N[C@@H](Cc1ccccc1)C(=O)N[C@@H](CCSC)C(=O)N[C@H](C(=O)N[C@@H](Cc1ccc(O)cc1)C(=O)NCC(=O)O)[C@@H](C)O` (H-YIIIEFMTYG-OH; N-terminus and C-terminus assumed) the IC50 was 186 nM.
In the case of `CC[C@H](C)[C@H](N)C(=O)N[C@H](C(=O)N[C@H](C(=O)N[C@@H](CCC(=O)O)C(=O)N[C@@H](Cc1ccccc1)C(=O)N[C@@H](CCSC)C(=O)N[C@H](C(=O)N[C@@H](Cc1ccc(O)cc1)C(=O)NCC(=O)O)[C@@H](C)O)[C@@H](C)CC)[C@@H](C)CC` (H-IIIEFMTYG-OH; N-terminus and C-terminus assumed), the IC50 is reported as 779 nM.
In the case of `CC(C)C[C@H](NC(=O)[C@H](CC(=O)O)NC(=O)[C@H](CO)NC(=O)[C@H](CCC(N)=O)NC(=O)[C@@H](N)CCC(N)=O)C(=O)N[C@@H](CCC(N)=O)C(=O)N1CCC[C@H]1C(=O)N1CCC[C@H]1C(=O)N[C@@H](C)C(=O)O` (H-QQSDLQPPA-OH; N-terminus and C-terminus assumed), the IC50 is reported as 70 nM.

Same assay, conditions: allele A02.01; read-out: Observed Affinity (IC50; (nM))
In the case of `CC(C)C[C@H](NC(=O)[C@H](Cc1c[nH]cn1)NC(=O)[C@H](Cc1c[nH]c2ccccc12)NC(=O)[C@H](CC(C)C)NC(=O)[C@@H](N)CCCNC(=N)N)C(=O)N[C@@H](CC(C)C)C(=O)N[C@@H](CC(C)C)C(=O)N[C@@H](CCC(N)=O)C(=O)N[C@H](C(=O)N[C@H](C(=O)O)[C@@H](C)O)C(C)C` (H-RLWHLLLQVT-OH; N-terminus and C-terminus assumed), the IC50 is reported as 50.9 nM.
`CC(C)C[C@H](NC(=O)[C@H](C)N)C(=O)N[C@@H](Cc1ccccc1)C(=O)N[C@@H](Cc1ccccc1)C(=O)N[C@@H](Cc1ccccc1)C(=O)N[C@@H](Cc1ccccc1)C(=O)N[C@@H](Cc1ccccc1)C(=O)N[C@@H](CCC(=O)O)C(=O)N[C@H](C(=O)O)[C@@H](C)O` (H-ALFFFFFET-OH; N-terminus and C-terminus assumed) showed an IC50 of 471 nM.
Work on `CC[C@H](C)[C@H](NC(=O)[C@@H](NC(=O)[C@@H](N)CC(C)C)[C@@H](C)O)C(=O)N[C@@H](CC(N)=O)C(=O)N[C@@H](CCCCN)C(=O)N[C@@H](CCC(=O)O)C(=O)N[C@@H](CCC(=O)O)C(=O)N[C@@H](C)C(=O)N[C@@H](CC(C)C)C(=O)O` [LTINKEEAL] yielded an IC50 of 4410 nM.
`CC(C)C[C@H](NC(=O)[C@H](CCCNC(=N)N)NC(=O)[C@@H](NC(=O)[C@H](CC(C)C)NC(=O)[C@@H](N)CO)C(C)C)C(=O)N[C@@H](CO)C(=O)N[C@@H](CO)C(=O)N[C@@H](CS)C(=O)N[C@H](C(=O)O)C(C)C` (H-SLVRLSSCV-OH; N-terminus and C-terminus assumed) gave an IC50 of 29.9 nM.
`CC(C)C[C@H](NC(=O)[C@H](C)N)C(=O)N[C@@H](CCC(N)=O)C(=O)N1CCC[C@H]1C(=O)N[C@@H](CC(C)C)C(=O)N[C@@H](CCC(N)=O)C(=O)N1CCC[C@H]1C(=O)N[C@@H](Cc1c[nH]cn1)C(=O)N[C@@H](C)C(=O)O` (H-ALQPLQPHA-OH; N-terminus and C-terminus assumed) gave an IC50 of 604 nM.
For `CC[C@H](C)[C@H](N)C(=O)N[C@H](C(=O)N[C@@H](CO)C(=O)N[C@@H](CCCNC(=N)N)C(=O)N[C@H](C(=O)N[C@@H](CC(C)C)C(=O)N[C@@H](CC(C)C)C(=O)N[C@@H](CC(C)C)C(=O)N[C@H](C(=O)O)C(C)C)[C@@H](C)O)C(C)C` (H-IVSRTLLLV-OH; N-terminus and C-terminus assumed), the IC50 was 12.7 nM.
In the case of `CSCC[C@H](NC(=O)[C@H](C)NC(=O)[C@H](CO)NC(=O)[C@H](CCSC)NC(=O)[C@H](CC(C)C)NC(=O)[C@H](C)N)C(=O)N[C@H](C(=O)N[C@H](C(=O)N[C@@H](CO)C(=O)O)[C@@H](C)O)[C@@H](C)O` (H-ALMSAMTTS-OH; N-terminus and C-terminus assumed), the IC50 is reported as 139 nM.
Compound `CC(C)C[C@H](NC(=O)[C@H](C)N)C(=O)N[C@@H](CC(N)=O)C(=O)N[C@@H](CO)C(=O)N[C@@H](CCC(=O)O)C(=O)N[C@@H](C)C(=O)N[C@@H](CC(C)C)C(=O)N[C@@H](CO)C(=O)N[C@H](C(=O)N[C@H](C(=O)O)C(C)C)C(C)C` has an IC50 of 15 nM.
`CC[C@H](C)[C@H](NC(=O)[C@@H](N)CC(C)C)C(=O)N[C@@H](CCSC)C(=O)N[C@@H](CCC(N)=O)C(=O)N[C@@H](CC(C)C)C(=O)N[C@@H](CCSC)C(=O)N1CCC[C@H]1C(=O)N[C@@H](Cc1ccccc1)C(=O)NCC(=O)O` (H-LIMQLMPFG-OH; N-terminus and C-terminus assumed) gave an IC50 of 3510 nM.
`CC(C)C[C@H](NC(=O)[C@H](CC(C)C)NC(=O)[C@H](CC(=O)O)NC(=O)[C@H](CO)NC(=O)[C@H](CC(C)C)NC(=O)[C@@H]1CCCN1C(=O)[C@@H](NC(=O)[C@@H](NC(=O)[C@@H](N)CC(N)=O)C(C)C)C(C)C)C(=O)O` (H-NVVPLSDLL-OH; N-terminus and C-terminus assumed) was tested, and the IC50 was 916 nM.
Compound `CC(C)C[C@H](NC(=O)[C@H](CC(C)C)NC(=O)[C@H](CC(C)C)NC(=O)[C@H](CC(=O)O)NC(=O)[C@H](CO)NC(=O)[C@H](CC(C)C)NC(=O)[C@@H]1CCCN1C(=O)[C@@H](NC(=O)[C@@H](NC(=O)[C@@H](N)CC(N)=O)C(C)C)C(C)C)C(=O)O` (H-NVVPLSDLLL-OH; N-terminus and C-terminus assumed) has an IC50 of 741 nM.
`CC(C)C[C@H](NC(=O)[C@H](CC(C)C)NC(=O)[C@H](CC(=O)O)NC(=O)[C@H](CS)NC(=O)[C@H](CC(C)C)NC(=O)[C@@H]1CCCN1C(=O)[C@@H](NC(=O)[C@@H](NC(=O)[C@@H](N)CC(N)=O)C(C)C)C(C)C)C(=O)O` (H-NVVPLCDLL-OH; N-terminus and C-terminus assumed) gave an IC50 of 3030 nM.
Compound `CC[C@H](C)[C@H](NC(=O)[C@@H]1CCCN1C(=O)[C@H](CCCNC(=N)N)NC(=O)[C@H](CCC(N)=O)NC(=O)[C@H](CC(N)=O)NC(=O)[C@H](CCSC)NC(=O)CN)C(=O)N[C@@H](CC(C)C)C(=O)N[C@H](C(=O)O)[C@@H](C)O` (H-GMNQRPILT-OH; N-terminus and C-terminus assumed) has an IC50 of 3030 nM.
With `CC(C)C[C@H](NC(=O)[C@H](CO)NC(=O)[C@H](CCCNC(=N)N)NC(=O)[C@H](Cc1c[nH]c2ccccc12)NC(=O)[C@H](CCC(N)=O)NC(=O)[C@@H](NC(=O)CNC(=O)[C@H](C)NC(=O)[C@H](CCC(N)=O)NC(=O)[C@H](C)N)C(C)C)C(=O)O` (H-AQAGVQWRSL-OH; N-terminus and C-terminus assumed) the IC50 was 670 nM.
Work on `CC[C@H](C)[C@H](N)C(=O)N[C@H](C(=O)N[C@@H](C)C(=O)N[C@@H](Cc1ccccc1)C(=O)N[C@@H](Cc1ccccc1)C(=O)N[C@@H](CC(C)C)C(=O)N[C@@H](CC(C)C)C(=O)N[C@@H](CC(=O)O)C(=O)N[C@H](C(=O)O)[C@@H](C)CC)[C@@H](C)O` (H-ITAFFLLDI-OH; N-terminus and C-terminus assumed) yielded an IC50 of 78.7 nM.
`CC(C)C[C@H](NC(=O)[C@H](CS)NC(=O)[C@H](Cc1c[nH]c2ccccc12)NC(=O)[C@H](CC(C)C)NC(=O)[C@H](CO)NC(=O)[C@H](CO)NC(=O)[C@H](CCCNC(=N)N)NC(=O)[C@H](CCC(N)=O)NC(=O)[C@H](CC(C)C)NC(=O)[C@@H](N)[C@@H](C)O)C(=O)O` (H-TLQRSSLWCL-OH; N-terminus and C-terminus assumed) gave an IC50 of 118 nM.
With `CC[C@H](C)[C@H](NC(=O)[C@@H](N)CCCCN)C(=O)N[C@H](C(=O)N[C@@H](CCC(=O)O)C(=O)N[C@@H](CCC(N)=O)C(=O)N[C@@H](CCC(=O)O)C(=O)N[C@@H](CCCCN)C(=O)N[C@@H](CC(=O)O)C(=O)N[C@@H](Cc1ccccc1)C(=O)N[C@@H](CC(C)C)C(=O)O)[C@@H](C)O` (H-KITEQEKDFL-OH; N-terminus and C-terminus assumed) the IC50 was 1400 nM.
In the case of `CSCC[C@H](N)C(=O)N[C@@H](CO)C(=O)N[C@H](C(=O)N[C@@H](CS)C(=O)N[C@@H](Cc1ccccc1)C(=O)N[C@@H](Cc1ccccc1)C(=O)N[C@@H](Cc1ccccc1)C(=O)N[C@@H](Cc1ccccc1)C(=O)N[C@@H](CO)C(=O)N[C@H](C(=O)O)C(C)C)C(C)C` (H-MSVCFFFFSV-OH; N-terminus and C-terminus assumed), the IC50 is reported as 1710 nM.
`CC(C)C[C@H](NC(=O)[C@H](CO)NC(=O)CNC(=O)[C@H](CC(C)C)NC(=O)[C@H](CO)NC(=O)[C@H](CCCNC(=N)N)NC(=O)[C@H](Cc1c[nH]c2ccccc12)NC(=O)[C@H](CCC(N)=O)NC(=O)[C@@H](N)C(C)C)C(=O)O` (H-VQWRSLGSL-OH; N-terminus and C-terminus assumed) was tested, and the IC50 was 4730 nM.
With `CC[C@H](C)[C@H](NC(=O)[C@@H]1CCCN1C(=O)[C@H](CCCNC(=N)N)NC(=O)[C@H](CCCNC(=N)N)NC(=O)[C@H](CC(N)=O)NC(=O)[C@H](CCSC)NC(=O)[C@@H](N)CO)C(=O)N[C@@H](CC(C)C)C(=O)N[C@H](C(=O)O)[C@@H](C)O` the IC50 was 3840 nM.
